Laboratory results published in PubChem BioAssay AID2060498 (Molecular Pharmacology Branch, DTP, NCI, 2025).

System: 171881-019-R-J1-PDC tumor spheroids, viability
Assay: Anticancer human tumor 171881-019-R-J1-PDC patient-derived invasive breast carcinoma cell line growth inhibition [GQUAD]
Details: spheroids with HUVEC and MSC; for IC50: curve of first compound; for viability, T/C: stronger effect = lower value
Text: DNA G-quadruplex Stabilizer Agents in Combinations in Complex Spheroids
A high-throughput screen of multi-cell type tumor spheroids was designed to identify active combinations of DNA G-quadruplex stabilizer agents and targeted small molecules. Complex spheroids include a stromal component modeled by human endothelial cells (HUVEC) and fibroblasts modeled by human mesenchymal stem cells (MSCs). The concentration ranges selected for each drug and investigational agent were based upon clinically achievable concentrations if the clinical Cmax of the agent was known.
Compounds. The drugs and investigational agents: pidnarulex (CX-5461; NSC782164), APTO-253 (NSC789042), BRACO-19 (NSC847499), peposertib (NSC802822), ceralasertib (NSC780249), elimusertib (NSC800525), camonsertib (NSC841442), AZD-1390 (NSC803789), olaparib (NSC753686), talazoparib (NSC767125), ART-558 (NSC835418), sotorasib (NSC818433), MRTX-1133 (NSC836407), SN-38 (NSC673596), topotecan (NSC609699), etoposide (NSC141540), doxorubicin (NSC123127), gemcitabine (NSC613327), 5-fluorouracil (NSC19893), paclitaxel (NSC125973), vemurafenib (NSC761431), panobinostat (NSC761190), R-306465 (JNJ-16241199; NSC773264), adavosertib (NSC754352), TP-3654 (NSC805149), carboplatin (NSC241240), KSQ-4279 (NSC840948), and staurosporine (NSC755774) were obtained from the National Cancer Institute (NCI) Developmental Therapeutics Program Chemical Repository (34). The FDA-approved anticancer drug set is available from the NCI Developmental Therapeutics Program. […] The stock solutions were prepared in dimethyl sulfoxide (DMSO, Sigma-Aldrich, St. Louis, MO, cat. D2650) at 800-fold the tested concentration and stored at -70 degrees C prior to their use. All drugs and investigational agents were tested over a range starting from a high concentration at or near the clinical Cmax and decreasing in half-log increments. If the clinical Cmax for an agent had not been determined, the highest concentration tested was 10 microM.
2.3 Cell Culture. All cells were maintained in an incubator at 37 degrees C and 5% CO2 with 95% humidity. The PDC lines were cultured according to standard operating procedures established by the NCI PDMR. All PDCs were thawed and cultured in Matrigel-coated flasks prepared with a working solution of 1X Ham's F-12 nutrient mix, without supplementation (Invitrogen, cat. 11765054), 100 U/mL penicillin-streptomycin (Invitrogen, cat. 15140122), and 2.5% Matrigel (Corning Inc., cat. 354248) for the first three passages. The 857933-349-R-J2-PDC line was cultured in 6C/Colon 1B media, which includes advanced DMEM/F-12 (Thermo Fisher Scientific, cat. 12634028), 10 mM HEPES (Thermo Fisher Scientific, cat. 15630080), 1X GlutaMAX supplement (Thermo Fisher Scientific, cat. 35050061), 0.1 mg/mL primocin (InvivoGen, cat. ant-pm-2), 10% defined fetal bovine serum, heat inactivated (HyClone Laboratories Inc., cat. SH30070.03HI), 50% L-WRN conditioned media (ATCC, cat. CRL-3276), 1.25 mM N-Acetyl-L-cysteine (Sigma-Aldrich, cat. A9165), 10 mM nicotinamide (Sigma-Aldrich, cat. N0636), 1X B-27 supplement (Thermo Fisher Scientific, cat. 17504044), 1X N-2 supplement (Thermo Fisher Scientific, cat. 17502048), 10 microM Y-27632 dihydrochloride (Tocris Bioscience, cat. 1254), and 50 ng/mL human EGF recombinant protein (Thermo Fisher Scientific, cat. PHG0311). The 485176-168-R4-J1-PDC line was cultured in Panc media, which includes all 6C/Colon 1B media components plus 100 ng/mL human FGF-10 (Thermo Fisher Scientific, cat. 100-26), 500 nM SB-431542 (Selleckchem, cat. S1067), and gastrin (Tocris, cat. 3006).
[…]
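Also: spheroids exposed to compounds for 7 days.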
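For viability, T/C in this document: 100% = DMSO vehicle control viability.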

IC50 (second compound 0.0316 µM): 706 nM
IC50 (second compound 0.1 µM): 907 nM
IC50 (second compound 0.316 µM): 1060 nM
IC50 (second compound 1 µM): 1270 nM
IC50 (second compound 3.16 µM): 1360 nM
IC50 (second compound 10 µM): 1400 nM
SMILES: COc1cc(C2c3cc4c(cc3C(OC3OC5COC(C)OC5C(O)C3O)C3COC(=O)C23)OCO4)cc(OC)c1O (configuration not stated) + Cc1cnc(CNC(=O)c2c(=O)c3ccc(N4CCCN(C)CC4)nc3n3c2sc2ccccc23)cn1
viability, T/C (second compound 0.0316 µM, first compound 0.0316 µM): 94.5%
viability, T/C (second compound 0.0316 µM, first compound 0.1 µM): 79.3%
viability, T/C (second compound 0.0316 µM, first compound 0.316 µM): 63.4%
viability, T/C (second compound 0.0316 µM, first compound 1 µM): 42.5%
viability, T/C (second compound 0.0316 µM, first compound 3.16 µM): 31.4%
viability, T/C (second compound 0.0316 µM, first compound 10 µM): 17.4%
viability, T/C (second compound 0.1 µM, first compound 0.0316 µM): 83.7%
viability, T/C (second compound 0.1 µM, first compound 0.1 µM): 75.2%
viability, T/C (second compound 0.1 µM, first compound 0.316 µM): 60.5%
viability, T/C (second compound 0.1 µM, first compound 1 µM): 52.3%
viability, T/C (second compound 0.1 µM, first compound 3.16 µM): 30.6%
viability, T/C (second compound 0.1 µM, first compound 10 µM): 16.7%
viability, T/C (second compound 0.316 µM, first compound 0.0316 µM): 69.9%
viability, T/C (second compound 0.316 µM, first compound 0.1 µM): 74.2%
viability, T/C (second compound 0.316 µM, first compound 0.316 µM): 59.9%
viability, T/C (second compound 0.316 µM, first compound 1 µM): 49.5%
viability, T/C (second compound 0.316 µM, first compound 3.16 µM): 36.7%
viability, T/C (second compound 0.316 µM, first compound 10 µM): 18.1%
viability, T/C (second compound 1 µM, first compound 0.0316 µM): 65.4%
viability, T/C (second compound 1 µM, first compound 0.1 µM): 61%
viability, T/C (second compound 1 µM, first compound 0.316 µM): 59.1%
viability, T/C (second compound 1 µM, first compound 1 µM): 53.3%
viability, T/C (second compound 1 µM, first compound 3.16 µM): 39.9%
viability, T/C (second compound 1 µM, first compound 10 µM): 19.3%
viability, T/C (second compound 3.16 µM, first compound 0.0316 µM): 60.3%
viability, T/C (second compound 3.16 µM, first compound 0.1 µM): 60.2%
viability, T/C (second compound 3.16 µM, first compound 0.316 µM): 60%
viability, T/C (second compound 3.16 µM, first compound 1 µM): 53.3%
viability, T/C (second compound 3.16 µM, first compound 3.16 µM): 39.7%
viability, T/C (second compound 3.16 µM, first compound 10 µM): 20.9%
viability, T/C (second compound 10 µM, first compound 0.0316 µM): 58%
viability, T/C (second compound 10 µM, first compound 0.1 µM): 57.7%
viability, T/C (second compound 10 µM, first compound 0.316 µM): 52.9%
viability, T/C (second compound 10 µM, first compound 1 µM): 55%
viability, T/C (second compound 10 µM, first compound 3.16 µM): 39%
viability, T/C (second compound 10 µM, first compound 10 µM): 21.1%
